Values after ≈ are worked out from the molar mass of the structure shown.
Experiments:
Test in all cases: MIC, standard serial dilution method
Type in all cases: cell-based
[1] = tested on: Bacillus subtilis NRRL B-558; conditions: B. subtilis NRRL B-558, nutrient agar, 37°C, 18 hours
Procedure: (§1) The minimum inhibitory concentrations (mcg/ml) of 6'-amino-6'-deoxylividomycin B, 6'-deoxy-6'-methylaminolividomycin B and 6'-deoxy-6'-(2-hydroxyethylamino) lividomycin B against various microorganisms were determined according to a standard serial dilution method using nutrient agar incubation medium at 37°C, the estimation being effected after 18 hours incubation except for Mycobacterium smegmalis ATCC 607, in which the estimation being effected after 48 hours incubation. The minimum inhibitory concentrations (mcg/ml) of neomycin and lividomycin B were also determined in the same manner they also for comparison.

[2] = tested on: Escherichia coli K-12 W 677; conditions: E. coli K-12 W 677, nutrient agar, 37°C, 18 hours
Procedure: as §1

[3] = tested on: Proteus rettgeri GN 466; conditions: Proteus rettgeri GN 466, nutrient agar, 37°C, 18 hours
Procedure: as §1

[4] = tested on: Escherichia coli K-12; conditions: E. coli K-12, nutrient agar, 37°C, 18 hours
Procedure: as §1

[5] = tested on: Escherichia coli K-12 LA 290 R 64; conditions: E. coli K-12 LA 290 R 64, nutrient agar, 37°C, 18 hours
Procedure: as §1

[6] = tested on: Staphylococcus aureus FDA 209 P; conditions: S. aureus FDA 209 P, nutrient agar, 37°C, 18 hours
Procedure: as §1

[7] = tested on: Escherichia coli K-12 LA 290 R 56
Procedure: as §1

[8] = tested on: Escherichia coli K-12 ML 1630; conditions: E. coli K-12 ML 1630, nutrient agar, 37°C, 18 hours
Procedure: as §1

[9] = tested on: Pseudomonas aeruginosa No.12; conditions: P. aeruginosa No.12, nutrient agar, 37°C, 18 hours
Procedure: as §1

[10] = tested on: Klebsiella pneumoniae type 22 No. 3038
Procedure: as §1

[11] = tested on: Mycobacterium smegmatis ATCC 607; conditions: 37°C, 48 hours
Procedure: as §1

[12] = tested on: Proteus rettgeri GN 311; conditions: 37°C, 18 hours
Procedure: as §1

[13] = tested on: Escherichia coli K-12 R-5; conditions: E. coli K-12 R-5, nutrient agar, 37°C, 18 hours
Procedure: as §1

[14] = tested on: Pseudomonas aeruginosa 99; conditions: P. aeruginosa 99, nutrient agar, 37°C, 18 hours
Procedure: as §1

[15] = tested on: Pseudomonas aeruginosa A 3
Procedure: as §1

[16] = tested on: Pseudomonas aeruginosa TI-13-1; conditions: P. aeruginosa TI-13-1, nutrient agar, 37°C, 18 hours
Procedure: as §1

[17] = tested on: Escherichia coli K-12 J 5 R 11-2; conditions: E. coli K-12 J 5 R 11-2, nutrient agar, 37°C, 18 hours
Procedure: as §1

[18] = tested on: Salmonella typhosa T-63
Procedure: as §1

[19] = tested on: Escherichia coli NIHJ
Procedure: as §1

[20] = tested on: Sarcina lutea PCI 1001; conditions: 37°C, 18 hours
Procedure: as §1

[21] = tested on: Escherichia coli K-12 ML 1410 R 81
Procedure: as §1

[22] = tested on: Escherichia coli K-12 ML 1410
Procedure: as §1

[23] = tested on: Klebsiella pneumoniae PCI 602; conditions: K. pneumoniae PCI 602, nutrient agar, 37°C, 18 hours
Procedure: as §1

[24] = tested on: Escherichia coli K-12 JR 66/W 677
Procedure: as §1
(§2) In the above table, the mark * denotes the strain is a drug-resistant
(§3) strain of patient-origin.

[25] = tested on: Pseudomonas aeruginosa GN 315
Procedure: as §1, §2, §3

[26] = tested on: Escherichia coli K-12 LA 290 R 55
Procedure: as §1, §2, §3

[27] = tested on: Escherichia coli K-12 ML 1629; conditions: E. coli K-12 ML 1629, drug-resistant strain of patient-origin, nutrient agar, 37°C, 18 hours
Procedure: as §1, §2, §3

[28] = Escherichia coli, 18 h, read-out: Minimal inhibitory concentration
[29] = Pseudomonas aeruginosa, read-out: Minimal inhibitory concentration

**Q.** With CNC[C@H]1O[C@H](O[C@H]2[C@H](O[C@@H]3O[C@H](CO)[C@@H](O[C@H]4O[C@@H](CN)[C@@H](O)[C@H](O)[C@H]4N)[C@H]3O)[C@@H](O)[C@H](N)C[C@@H]2N)[C@H](N)C[C@@H]1O [MALVB, 6'-deoxy-6'-methylaminolividomycin B] as the compound, how does the MIC ([1]; Bacillus subtilis, NRRLB558, read-out: Minimal inhibitory concentration) read?
**A.** The MIC was less than 0.2 µg/mL.

**Q.** And the MIC ([2]; Escherichia coli, K12W677, read-out: Minimal inhibitory concentration)?
**A.** Its MIC is 0.78 µg/mL (≈ 1.27 µM).

**Q.** What about the MIC ([3]; Providencia rettgeri, GN466, read-out: Minimal inhibitory concentration) of the same compound?
**A.** The MIC was 12.5 µg/mL (≈ 20.4 µM).

**Q.** And the MIC ([4]; Escherichia coli, K12, read-out: Minimal inhibitory concentration)?
**A.** The MIC was 0.78 µg/mL (≈ 1.27 µM).

**Q.** What about the MIC ([5]; Escherichia coli, read-out: Minimal inhibitory concentration) of the same compound?
**A.** Its MIC is 0.78 µg/mL (≈ 1.27 µM).

**Q.** What about the MIC ([6]; Staphylococcus aureus, FDA209, read-out: Minimal inhibitory concentration) of the same compound?
**A.** The MIC was less than 0.2 µg/mL.

**Q.** And the MIC [7, 28]?
**A.** The MIC was 1.56 µg/mL (≈ 2.55 µM).

**Q.** And the MIC ([8]; Escherichia coli, K12ML1630, read-out: Minimal inhibitory concentration)?
**A.** Its MIC is greater than 100 µg/mL.

**Q.** And the MIC [9, 29]?
**A.** Its MIC is 0.78 µg/mL (≈ 1.27 µM).

**Q.** And the MIC ([10]; Klebsiella pneumoniae, TYPE22NO.3038, 18 h, read-out: Minimal inhibitory concentration)?
**A.** Its MIC is 1.56 µg/mL (≈ 2.55 µM).

**Q.** And the MIC ([11]; Mycolicibacterium smegmatis, ATCC607, nutrient agar, read-out: Minimal inhibitory concentration)?
**A.** The MIC was less than 0.2 µg/mL.

**Q.** And the MIC ([12]; Providencia rettgeri, GN311, nutrient agar, read-out: Minimal inhibitory concentration)?
**A.** The MIC was 25 µg/mL (≈ 40.8 µM).

**Q.** And the MIC ([13]; Escherichia coli, K12R5, read-out: Minimal inhibitory concentration)?
**A.** The MIC was 1.56 µg/mL (≈ 2.55 µM).

**Q.** And the MIC [14, 29]?
**A.** The MIC was 25 µg/mL (≈ 40.8 µM).

**Q.** What about the MIC ([15]; Pseudomonas aeruginosa, A3, 18 h, read-out: Minimal inhibitory concentration) of the same compound?
**A.** The MIC was 3.12 µg/mL (≈ 5.09 µM).

**Q.** What about the MIC ([16]; Pseudomonas aeruginosa, TI131, read-out: Minimal inhibitory concentration) of the same compound?
**A.** Its MIC is greater than 100 µg/mL.

**Q.** What about the MIC ([17]; Escherichia coli, K12J5R112, read-out: Minimal inhibitory concentration) of the same compound?
**A.** Its MIC is 100 µg/mL (≈ 163 µM).

**Q.** What about the MIC ([18]; Salmonella enterica, TYPHOSA, 18 h, read-out: Minimal inhibitory concentration) of the same compound?
**A.** Its MIC is 0.78 µg/mL (≈ 1.27 µM).

**Q.** What about the MIC [19, 28] of the same compound?
**A.** The MIC was 3.12 µg/mL (≈ 5.09 µM).

**Q.** And the MIC ([20]; Micrococcus luteus, PCI1001, nutrient agar, read-out: Minimal inhibitory concentration)?
**A.** Its MIC is 6.25 µg/mL (≈ 10.2 µM).

**Q.** And the MIC [21, 28]?
**A.** The MIC was greater than 100 µg/mL.

**Q.** What about the MIC ([22]; Escherichia coli, K12ML1410, 18 h, read-out: Minimal inhibitory concentration) of the same compound?
**A.** The MIC was 3.12 µg/mL (≈ 5.09 µM).

**Q.** What about the MIC ([23]; Klebsiella pneumoniae, PCI602, read-out: Minimal inhibitory concentration) of the same compound?
**A.** The MIC was 0.78 µg/mL (≈ 1.27 µM).

**Q.** And the MIC [24, 28]?
**A.** The MIC was 3.12 µg/mL (≈ 5.09 µM).

**Q.** And the MIC ([25]; Pseudomonas aeruginosa, GN315, 18 h, read-out: Minimal inhibitory concentration)?
**A.** The MIC was 3.12 µg/mL (≈ 5.09 µM).

**Q.** And the MIC [26, 28]?
**A.** Its MIC is 1.56 µg/mL (≈ 2.55 µM).

**Q.** What about the MIC ([27]; Escherichia coli, K12ML1629, read-out: Minimal inhibitory concentration) of the same compound?
**A.** Its MIC is greater than 100 µg/mL.

**Q.** How did the Minimal inhibitory concentration [1] turn out when NC[C@@H]1O[C@H](O[C@H]2[C@@H](O)[C@H](O[C@@H]3[C@@H](O)[C@H](N)C[C@H](N)[C@H]3O[C@H]3O[C@H](CN)[C@@H](O)[C@H](O)[C@H]3N)O[C@@H]2CO)[C@H](N)[C@@H](O)[C@@H]1O [NM, neomycin, reference compound] was run?
**A.** The Minimal inhibitory concentration was less than 0.20 µg/mL.

**Q.** What about the Minimal inhibitory concentration [2] of the same compound?
**A.** Its Minimal inhibitory concentration is 0.78 µg/mL (≈ 1.27 µM).

**Q.** And the Minimal inhibitory concentration [3]?
**A.** The Minimal inhibitory concentration was 3.12 µg/mL (≈ 5.08 µM).

**Q.** What about the Minimal inhibitory concentration [4] of the same compound?
**A.** Its Minimal inhibitory concentration is 1.56 µg/mL (≈ 2.54 µM).

**Q.** What about the Minimal inhibitory concentration [5] of the same compound?
**A.** Its Minimal inhibitory concentration is 0.39 µg/mL (≈ 0.635 µM).

**Q.** What about the Minimal inhibitory concentration [6] of the same compound?
**A.** The Minimal inhibitory concentration was 0.39 µg/mL (≈ 0.635 µM).

**Q.** What about the Minimal inhibitory concentration ([7]; E. coli K-12 LA 290 R 56, nutrient agar, 37°C, 18 hours) of the same compound?
**A.** Its Minimal inhibitory concentration is 0.78 µg/mL (≈ 1.27 µM).

**Q.** What about the Minimal inhibitory concentration [8] of the same compound?
**A.** Its Minimal inhibitory concentration is greater than 100 µg/mL.

**Q.** And the Minimal inhibitory concentration [9]?
**A.** Its Minimal inhibitory concentration is 3.12 µg/mL (≈ 5.08 µM).

**Q.** What about the Minimal inhibitory concentration ([10]; K. pneumoniae type 22 No. 3038, nutrient agar, 37°C, 18 hours) of the same compound?
**A.** Its Minimal inhibitory concentration is greater than 100 µg/mL.

**Q.** And the Minimal inhibitory concentration ([11]; nutrient agar)?
**A.** The Minimal inhibitory concentration was less than 0.20 µg/mL.

**Q.** And the Minimal inhibitory concentration ([12]; nutrient agar)?
**A.** The Minimal inhibitory concentration was 50 µg/mL (≈ 81.3 µM).

**Q.** And the Minimal inhibitory concentration [13]?
**A.** The Minimal inhibitory concentration was 0.78 µg/mL (≈ 1.27 µM).

**Q.** And the Minimal inhibitory concentration [14]?
**A.** Its Minimal inhibitory concentration is 50 µg/mL (≈ 81.3 µM).

**Q.** What about the Minimal inhibitory concentration ([15]; P. aeruginosa A 3, nutrient agar, 37°C, 18 hours) of the same compound?
**A.** Its Minimal inhibitory concentration is 25 µg/mL (≈ 40.7 µM).

**Q.** What about the Minimal inhibitory concentration [16] of the same compound?
**A.** The Minimal inhibitory concentration was greater than 100 µg/mL.

**Q.** And the Minimal inhibitory concentration [17]?
**A.** Its Minimal inhibitory concentration is 50 µg/mL (≈ 81.3 µM).

**Q.** What about the Minimal inhibitory concentration ([18]; Salmonella typhosa T-63, nutrient agar, 37°C, 18 hours) of the same compound?
**A.** The Minimal inhibitory concentration was 0.78 µg/mL (≈ 1.27 µM).

**Q.** And the Minimal inhibitory concentration ([19]; E. coli NIHJ, nutrient agar, 37°C, 18 hours)?
**A.** The Minimal inhibitory concentration was 1.56 µg/mL (≈ 2.54 µM).

**Q.** What about the Minimal inhibitory concentration ([20]; nutrient agar) of the same compound?
**A.** The Minimal inhibitory concentration was 0.78 µg/mL (≈ 1.27 µM).

**Q.** What about the Minimal inhibitory concentration ([21]; E. coli K-12 ML 1410 R 81, nutrient agar, 37°C, 18 hours) of the same compound?
**A.** The Minimal inhibitory concentration was greater than 100 µg/mL.

**Q.** What about the Minimal inhibitory concentration ([22]; E. coli K-12 ML 1410, nutrient agar, 37°C, 18 hours) of the same compound?
**A.** Its Minimal inhibitory concentration is 6.25 µg/mL (≈ 10.2 µM).

**Q.** And the Minimal inhibitory concentration [23]?
**A.** The Minimal inhibitory concentration was 0.78 µg/mL (≈ 1.27 µM).

**Q.** What about the Minimal inhibitory concentration ([24]; E. coli K-12 JR 66/W 677, drug-resistant strain of patient-origin, nutrient agar, 37°C, 18 hours) of the same compound?
**A.** The Minimal inhibitory concentration was greater than 100 µg/mL.

**Q.** What about the Minimal inhibitory concentration ([25]; P. aeruginosa GN 315, drug-resistant strain of patient-origin, nutrient agar, 37°C, 18 hours) of the same compound?
**A.** The Minimal inhibitory concentration was 100 µg/mL (≈ 163 µM).

**Q.** And the Minimal inhibitory concentration ([26]; E. coli K-12 LA 290 R 55, drug-resistant strain of patient-origin, nutrient agar, 37°C, 18 hours)?
**A.** Its Minimal inhibitory concentration is 0.78 µg/mL (≈ 1.27 µM).

**Q.** What about the Minimal inhibitory concentration [27] of the same compound?
**A.** Its Minimal inhibitory concentration is 100 µg/mL (≈ 163 µM).
